The record followed here is patent publication US20190151312A1, “HEPARAN SULFATE BIOSYNTHESIS INHIBITORS FOR THE TREATMENT OF DISEASES” (BioMarin Pharmaceutical Inc., priority 2014, published 2019).

This experiment concerns GM01896 cells (MPS II dermal fibroblasts). Description: Assay 1: MPS cellular assay, MPS II (heparan sulfate disaccharide biomarkers by LC-MS). It is filed as cell-based, human. Particulars: Assay 1 for MPS II, heparan sulfate disaccharide biomarkers (I2a4, I2a6, I2S0 and/or I2S6), read-out: IC50 Range. An outline of the steps: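 MPS II patient dermal fibroblasts (GM01896) treated with compound at ≤30 μM for 4 to 21 days. Heparan sulfate GAGs isolated by anion exchange, digested with heparinases I-III, aniline-tagged against [13C6]aniline standards and quantified by LC-MS; IC50 from curve fitting. Viability monitored by alamar blue or ATP.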

Structures are written as SMILES. Like-named read-outs stand apart in the source and are kept apart here. Where only a bound is given, the exact number is not on record here.

What is called IC50 is the concentration that gives 50% inhibition. Consider `Cc1nn(C)c2cc(-c3cc(Nc4ccc(-c5cn(C)cn5)cc4)nc(N4CCOCC4)n3)ccc12` [[6-(1,3-dimethyl(1H-indazol-6-yl))-2-morpholin-4-ylpyrimidin-4-yl][4-(1-methylimidazol-4-yl)phenyl]amine], for which the IC50 (Homo sapiens, Fibroblast) fell in the range of 1000 to 5000 nM.
For `Cc1c(C)n(C)c2cc(Nc3cc(-c4ccc5cnn(C)c5c4)nc(N4CCOCC4)n3)ccc12` [[6-(1-methyl(1H-indazol-6-yl))-2-morpholin-4-ylpyrimidin-4-yl](1,2,3-trimethylindol-6-yl)amine], for the setting “Homo sapiens, Fibroblast”, the IC50 fell in the range of 1000 to 5000 nM.
As for `Cc1ccn(-c2ccc(Nc3cc(-c4ccc5c(C)nn(C)c5c4)nc(N4CCOCC4)n3)cc2)n1` [[6-(1,3-dimethyl(1H-indazol-6-yl))-2-morpholin-4-ylpyrimidin-4-yl][4-(3-methylpyrazolyl)phenyl]amine], the IC50 was less than 500 nM.
Regarding `Cc1nc2ccc(-c3cc(Nc4ccc(Cl)cc4)nc(N4CCOCC4)n3)cc2n1CCCN(C)C` [[3-(6-{6-[(4-chlorophenyl)amino]-2-morpholin-4-ylpyrimidin-4-yl}-2-methylbenzimidazolyl)propyl]dimethylamine], the IC50 lay in the range of 500 to 1000 nM.
With `Cn1cnc2ccc(-c3cc(Nc4ccc(Cl)cc4)nc(N4CCOCC4)n3)cc21` [(4-chlorophenyl)[6-(1-methylbenzimidazol-6-yl)-2-morpholin-4-ylpyrimidin-4-yl]amine], the IC50 (Homo sapiens, Fibroblast) is less than 500 nM.
On the same count and under the same terms, to `Cn1ncc2ccc(-c3cc(Nc4ccc(-c5nc[nH]n5)cc4)nc(N4CCOCC4)n3)cc21` [[6-(1-methyl(1H-indazol-6-yl))-2-morpholin-4-ylpyrimidin-4-yl](4-(1,2,4-triazolyl)phenyl)amine] belongs 500 to 1000 nM; to `Cn1c(CN2CCCC2)nc2ccc(-c3cc(Nc4ccc(Cl)cc4)nc(N4CCOCC4)n3)cc21` [(4-chlorophenyl){6-[1-methyl-2-(pyrrolidinylmethyl)benzimidazol-6-yl]-2-morpholin-4-ylpyrimidin-4-yl}amine], 1000 to 5000 nM; to `CNC(=O)c1ccc(Nc2cc(-c3ccc4c(c3)ncn4CC3CC3)nc(N3CCOCC3)n2)cc1` [[4-({6-[1-(cyclopropylmethyl)benzimidazol-5-yl]-2-morpholin-4-ylpyrimidin-4-yl}amino)phenyl]-N-methylcarboxamide], less than 500 nM.
`Cn1ncc2ccc(-c3cc(Nc4ccc(Cl)cc4)nc(N4CCOCC4)n3)nc21` [(4-chlorophenyl)[6-(1-methylpyrazolo[4,5-e]pyridin-6-yl)-2-morpholin-4-ylpyrimidin-4-yl]amine]: the IC50 (Homo sapiens, Fibroblast) lay in the range of 1000 to 5000 nM.
As for `Cc1nn(CCN(C)C)c2cc(-c3cc(Nc4ccc(Cl)cc4)nc(N4CCOCC4)n3)ccc12` [[2-(6-{6-[(4-chlorophenyl)amino]-2-morpholin-4-ylpyrimidin-4-yl}-3-methyl(1H-indazoly))ethyl]dimethylamine], the IC50 is 1000 to 5000 nM.
As for `CNC(=O)c1ccc(Nc2cc(-c3ccc4c(c3)ncn4CC3CC3)nc(N3CCOCC3)n2)cn1` [[5-({6-[1-(cyclopropylmethyl)benzimidazol-5-yl]-2-morpholin-4-ylpyrimidin-4-yl}amino)(2-pyridyl)]-N-methylcarboxamide], the IC50 (Homo sapiens, Fibroblast) lay within 500 to 1000 nM.
Regarding `CCNC(=O)c1ccc(Nc2cc(-c3ccc4ncn(C)c4c3)nc(N3CCOCC3)n2)cc1` [N-ethyl(4-{[6-(1-methylbenzimidazol-6-yl)-2-morpholin-4-ylpyrimidin-4-yl]amino}phenyl)carboxamide], the IC50 (Homo sapiens, Fibroblast) lay within 1000 to 5000 nM.
In the case of `Cn1nc2ccc(Nc3cc(-c4ccc5cnn(C)c5c4)nc(N4CCOCC4)n3)cc2n1` [[6-(1-methyl(1H-indazol-6-yl))-2-morpholin-4-ylpyrimidin-4-yl](2-methyl(2-hydrobenzotriazol-5-yl))amine], the IC50 was 1000 to 5000 nM.
As for `CNC(=O)c1ccc(Nc2cc(-c3ccc4cnn(C)c4c3)nc(N3CCOCC3)n2)cc1` [N-methyl(4-{[6-(1-methyl(1H-indazol-6-yl))-2-morpholin-4-ylpyrimidin-4-yl]amino}phenyl)carboxamide], under “Homo sapiens, Fibroblast”, the IC50 is less than 500 nM.
Regarding `Clc1ccc(Nc2cc(-c3ccc4c(c3)ncn4CCN3CCCC3)nc(N3CCOCC3)n2)cc1` [(4-chlorophenyl){2-morpholin-4-yl-6-[1-(2-pyrrolidinylethyl)benzimidazol-5-yl]pyrimidin-4-yl}amine], the IC50 (Homo sapiens, Fibroblast) lay within 1000 to 5000 nM.
For the compound `CNC(=O)c1ccc(Nc2cc(-c3ccc4ncn(CC5CC5)c4c3)nc(N3CCOCC3)n2)cn1` [[5-({6-[1-(cyclopropylmethyl)benzimidazol-6-yl]-2-morpholin-4-ylpyrimidin-4-yl}amino)(2-pyridyl)]-N-methylcarboxamide], the IC50 (Homo sapiens, Fibroblast) was less than 500 nM.
Same read-out and setting: to `CNC(=O)c1ccc(Nc2cc(-c3ccc4ncn(CC5CC5)c4c3)nc(N3CCOCC3)n2)cc1` [[4-({6-[1-(cyclopropylmethyl)benzimidazol-6-yl]-2-morpholin-4-ylpyrimidin-4-yl}amino)phenyl]-N-methylcarboxamide] belongs less than 500 nM.
Consider `CC(C)NC(=O)c1ccc(Nc2cc(-c3ccc4cnn(C)c4c3)nc(N3CCOCC3)n2)cc1` [(4-{[6-(1-methyl(1H-indazol-6-yl))-2-morpholin-4-ylpyrimidin-4-yl]amino}phenyl)-N-(methylethyl)carboxamide], for which the IC50 (Homo sapiens, Fibroblast) was in the range of 500 to 1000 nM.
In the case of `Cn1nc(N2CCCC2)c2ccc(-c3cc(Nc4ccc(Cl)cc4)nc(N4CCOCC4)n3)cc21` [(4-chlorophenyl)[6-(1-methyl-3-pyrrolidinyl(1H-indazol-6-yl))-2-morpholin-4-ylpyrimidin-4-yl]amine], the IC50 lay in the range of 1000 to 5000 nM.
Turning to `CNC(=O)c1ccc(Nc2cc(-c3ccc4c(C)nn(C)c4c3)nc(N3CCOCC3)n2)cc1` [(4-{[6-(1,3-dimethyl(1H-indazol-6-yl))-2-morpholin-4-ylpyrimidin-4-yl]amino}phenyl)-N-methylcarboxamide], where the note is “Homo sapiens, Fibroblast”, the IC50 was less than 500 nM.
Take `Cc1nn(C)c2cc(-c3cc(Nc4ccc5[nH]ccc5c4)nc(N4CCOCC4)n3)ccc12` [[6-(1,3-dimethyl(1H-indazol-6-yl))-2-morpholin-4-ylpyrimidin-4-yl]indol-5-ylamine]: the IC50 (Homo sapiens, Fibroblast) was in the range of 1000 to 5000 nM.
On the same count and under the same terms, to `Cn1c(CN2CCOCC2)nc2ccc(-c3cc(Nc4ccc(Cl)cc4)nc(N4CCOCC4)n3)cc21` [(4-chlorophenyl){6-[1-methyl-2-(morpholin-4-ylmethyl)benzimidazol-6-yl]-2-morpholin-4-ylpyrimidin-4-yl}amine] belongs 500 to 1000 nM.
For `Cc1nn(CCCN(C)C)c2cc(-c3cc(Nc4ccc(Cl)cc4)nc(N4CCOCC4)n3)ccc12` [[3-(6-{6-[(4-chlorophenyl)amino]-2-morpholin-4-ylpyrimidin-4-yl}-3-methyl(1H-indazolyl))propyl]dimethylamine], where the note is “Homo sapiens, Fibroblast”, the IC50 lay within 500 to 1000 nM.
`Cn1nc(NCCN2CCOCC2)c2ccc(-c3cc(Nc4ccc(Cl)cc4)nc(N4CCOCC4)n3)cc21` [(4-chlorophenyl)(6-{1-methyl-3-[(2-morpholin-4-ylethyl)amino](1H-indazol-6-yl)}-2-morpholin-4-ylpyrimidin-4-yl)amine]: the IC50 (Homo sapiens, Fibroblast) is 500 to 1000 nM.
With `Clc1ccc(Nc2cc(-c3ccc4c(c3)ncn4CCCN3CCOCC3)nc(N3CCOCC3)n2)cc1` [(4-chlorophenyl){2-morpholin-4-yl-6-[1-(3-morpholin-4-ylpropyl)benzimidazol-5-yl]pyrimidin-4-yl}amine], the IC50 (Homo sapiens, Fibroblast) was 1000 to 5000 nM.
Regarding `Cc1nn(C)c2cc(-c3cc(Nc4ccc5cc(C)n(C)c5c4)nc(N4CCOCC4)n3)ccc12` [[6-(1,3-dimethyl(1H-indazol-6-yl))-2-morpholin-4-ylpyrimidin-4-yl](1,2-dimethylindol-6-yl)amine], the IC50 (Homo sapiens, Fibroblast) lay in the range of 500 to 1000 nM.
`Cc1c2ccc(-c3cc(Nc4ccc(Cl)cc4)nc(N4CCOCC4)n3)cc2nn1CCN(C)C` [[2-(6-{6-[(4-chlorophenyl)amino]-2-morpholin-4-ylpyrimidin-4-yl}-3-methyl(2H-indazol-2-yl))ethyl]dimethylamine]: the IC50 (Homo sapiens, Fibroblast) was in the range of 1000 to 5000 nM.
Turning to `CN(C)CCCc1nn(C)c2cc(-c3cc(Nc4ccc5ccn(C)c5c4)nc(N4CCOCC4)n3)ccc12` [dimethyl[3-(1-methyl-6-{6-[(1-methylindol-6-yl)amino]-2-morpholin-4-ylpyrimidin-4-yl} (1H-indazol-3-yl))propyl]amine], the concentration for half-maximal inhibition (IC50) (Homo sapiens, Fibroblast) was less than 500 nM.
On to `Clc1ccc(Nc2cc(-c3ccc4ncn(CCN5CCCC5)c4c3)nc(N3CCOCC3)n2)cc1` [(4-chlorophenyl){2-morpholin-4-yl-6-[1-(2-pyrrolidinylethyl)benzimidazol-6-yl]pyrimidin-4-yl}amine], for which, for the setting “Homo sapiens, Fibroblast”, the IC50 was in the range of 500 to 1000 nM.
Still for that read-out and setting: to `Cn1nc(CCN2CCOCC2)c2ccc(-c3cc(Nc4ccc(C#N)cc4)nc(N4CCOCC4)n3)cc21` [4-({6-[1-methyl-3-(2-morpholin-4-ylethyl)(1H-indazol-6-yl)]-2-morpholin-4-ylpyrimidin-4-yl}amino)benzenecarbonitrile] belongs 1000 to 5000 nM; to `CN(C)CCNc1nn(C)c2cc(-c3cc(Nc4ccc(Cl)cc4)nc(N4CCOCC4)n3)ccc12` [{2-[(6-{6-[(4-chlorophenyl)amino]-2-morpholin-4-ylpyrimidin-4-yl}-1-methyl(1H-indazol-3-yl))amino]ethyl}dimethylamine], 500 to 1000 nM.
Still for that read-out and setting: to `Cn1ccc2ccc(Nc3cc(-c4ccc5c(CCN6CCOCC6)nn(C)c5c4)nc(N4CCOCC4)n3)cc21` [(1-methylindol-6-yl){6-[1-methyl-3-(2-morpholin-4-ylethyl)(1H-indazol-6-yl)]-2-morpholin-4-ylpyrimidin-4-yl}amine] belongs less than 500 nM.
On the same count and under the same terms, to `CNC(=O)c1ccc(Nc2cc(-c3ccc4c(c3)ncn4CCN3CCOCC3)nc(N3CCOCC3)n2)cc1` [N-methyl[4-({2-morpholin-4-yl-6-[1-(2-morpholin-4-ylethyl)benzimidazol-5-yl]pyrimidin-4-yl}amino)phenyl]carboxamide] belongs 500 to 1000 nM; to `Cc1nn(C)c2cc(-c3cc(Nc4cc(Cl)c5ccn(C)c5c4)nc(N4CCOCC4)n3)ccc12` [[6-(1,3-dimethyl(1H-indazol-6-yl))-2-morpholin-4-ylpyrimidin-4-yl](4-chloro-1-methylindol-6-yl)amine], 1000 to 5000 nM.
